“Also recorded” adds a separate entry of the source.
Tests used:
[1] = system: Influenza A virus H1N1 (H1N1A/Weiss/43); test: microbe, parasite or virus in culture; assay type: cell-based; details: for EC50: 72 h
in vitro = details: dog
influenza A virus H1N1 = system: influenza A virus H1N1; set-up: species or system SPF KM mice; details: mouse, in vivo
[2] = system: NA from influenza A virus H1N1; assay type: biochemical

Row | Structure (SMILES) | EC50 ([1]; Influenza A virus, H1N1, MDCK) [µM] | CC50 (in vitro) [µM] | other results
1 | COC1=C(c2ccccc2)C(=O)OC1(C)OC (stereo not drawn) [Compound 22, 3,4-dimethoxy-4-methyl-2-phenylbutenolide] | 26.3 ± 4.4 | 168 ± 9.7 | 
2 | COC1=C(c2ccc(Cl)cc2)C(=O)OC1(C)OC (stereo not drawn) [Compound 24, 2-(4-chlorophenyl)-3,4-dimethoxy-4-methylbutenolide] |  | 98.3 ± 3.5 | 
3 | COC1=C(c2ccc(Br)cc2)C(=O)OC1(C)OC (stereo not drawn) [Compound 25, 2-(4-bromophenyl)-3,4-dimethoxy-4-methylbutenolide] | 61.1 ± 5 | 266 ± 18.4 | IC50 ([1]; Influenza A virus, H1N1, MDCK, read-out: IC50 for inhibiting influenza A virus H1N1): 61 µM
4 | COC1=C(c2ccc(C)cc2)C(=O)OC1(C)OC (stereo not drawn) [Compound 26, 3,4-dimethoxy-4-methyl-2-(p-tolyl) butenolide] |  | 184 ± 5.1 | 
5 | COC1=C(c2cccc(F)c2)C(=O)OC1(C)OC (stereo not drawn) [Compound 28, 2-(3-fluorophenyl)-3,4-dimethoxy-4-methylbutenolide] | 9.4 ± 0.8 | 19.8 ± 1 | 
6 | COC1=C(c2ccccc2F)C(=O)OC1(C)OC (stereo not drawn) [Compound 29, 2-(2-fluorophenyl)-3,4-dimethoxy-4-methylbutenolide] |  | 204 ± 3.2 | 
7 | COC1=C(c2ccc(F)c(F)c2)C(=O)OC1(C)OC (stereo not drawn) [Compound 30, 2-(3,4-difluorophenyl)-3,4-dimethoxy-4-methylbutenolide] | 33.4 ± 1 | 109 ± 7.6 | 
8 | COc1ccc(C2=C(N3CCOCC3)C(C)(OC)OC2=O)cc1 (stereo not drawn) [Compound 37, 2-(4-methoxyphenyl)-4-methoxy-4-methyl-3-morpholinobutenolide] | 6.7 ± 1.3 | 536 ± 15.1 | body temperature after virus infection (influenza A virus H1N1): closed to the control groups; body weight after virus infection (influenza A virus H1N1): kept increasing; gross lesions in lungs (influenza A virus H1N1): less lesion; lung histopathology (H&E staining) (influenza A virus H1N1): less lung inflammation and lesions; viral load / expression of virus gene in lung tissue by qRT-PCR (influenza A virus H1N1): inhibit the expression of the influenza A virus gene in the lung; also recorded: Lower viral loads; also recorded: lower than that of the model group; inhibition rate of NA activity (in words) [2]: increased in a dose-dependent manner; antivirus activity against influenza A H1N1 (in words) [1]: dose-dependent; also recorded: better antivirus activity than positive control ribavirin
9 | COC1=C(c2ccc(Cl)cc2)C(=O)OC1(C)C(O)c1ccc(C)cc1 (stereo not drawn) [Compound 46] |  | 75.2 ± 3.6 | 
10 | COC1=C(c2ccc(Cl)cc2)C(=O)OC1(C)C(O)c1ccccn1 (stereo not drawn) [Compound 47] |  | 155 ± 6.8 | 
11 | COC1=C(c2ccc(Cl)cc2)C(=O)OC1(C)C(O)c1ccc(N2CCOCC2)cc1 (stereo not drawn) [Compound 48] |  | 130 ± 8.1 | 
12 | COC1(C)OC(=O)C(c2ccc(F)cc2)=C1N1CCOCC1 (stereo not drawn) [Compound 57] | 14.3 ± 1.7 | 776 ± 63.2 | 
13 | COC1(C)OC(=O)C(c2ccc(Cl)cc2)=C1N1CCOCC1 (stereo not drawn) [Compound 58] | 34.7 ± 5.9 | 209 ± 14.1 | 
14 | COC1(C)OC(=O)C(c2cccc(F)c2)=C1N1CCOCC1 (stereo not drawn) [Compound 60] |  | 147 ± 8.1 | 
15 | CCOC(=O)C1=C[C@@H](OC(CC)CC)[C@H](NC(C)=O)[C@@H](N)C1 [Os, Oseltamivir, reference compound] | 0.28 ± 0.05 | > 800 | 
16 | NC(=O)c1ncn([C@@H]2O[C@H](CO)[C@@H](O)[C@H]2O)n1 [Ri, Ribavirin, reference compound] | 105 ± 51 | 532 ± 20.3 | 

— publication PMC6705239 (ACS Omega, 2019)
